Results published in PubChem BioAssay (NCI).
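At the GI50, growth is halved. The concentration for full growth arrest is given as TGI.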

Tests used:
Assay in all cases: DTP human tumour cell line panel, 384-well format
ACHN renal = tested on: ACHN renal
NCI-H322M lung = tested on: NCI-H322M lung
TK-10 renal = tested on: TK-10 renal
OVCAR-8 ovarian = tested on: OVCAR-8 ovarian
NCI-H226 lung = tested on: NCI-H226 lung
MDA-MB-468 breast = tested on: MDA-MB-468 breast
MDA-MB-435 melanoma = tested on: MDA-MB-435 melanoma
SNB-75 CNS = tested on: SNB-75 CNS
SW-620 colon = tested on: SW-620 colon
786-0 renal = tested on: 786-0 renal
NCI/ADR-RES ovarian = tested on: NCI/ADR-RES ovarian
HL-60(TB) leukemia = tested on: HL-60(TB) leukemia
SK-MEL-28 melanoma = tested on: SK-MEL-28 melanoma
PC-3 prostate = tested on: PC-3 prostate
MCF7 breast = tested on: MCF7 breast
NCI-H23 lung = tested on: NCI-H23 lung
A498 renal = tested on: A498 renal
M14 melanoma = tested on: M14 melanoma
RPMI-8226 leukemia = tested on: RPMI-8226 leukemia
UO-31 renal = tested on: UO-31 renal
NCI-H460 NSCLC = tested on: NCI-H460 NSCLC
SF-295 CNS = tested on: SF-295 CNS
SF-268 CNS = tested on: SF-268 CNS
HT29 colon = tested on: HT29 colon
SK-OV-3 ovarian = tested on: SK-OV-3 ovarian
SF-539 CNS = tested on: SF-539 CNS
HOP-92 NSCLC = tested on: HOP-92 NSCLC
NCI-H522 lung = tested on: NCI-H522 lung
K-562 leukemia = tested on: K-562 leukemia
DU-145 prostate = tested on: DU-145 prostate
HCC-2998 colon = tested on: HCC-2998 colon
EKVX NSCLC = tested on: EKVX NSCLC
HOP-62 NSCLC = tested on: HOP-62 NSCLC
SNB-19 CNS = tested on: SNB-19 CNS
MALME-3M melanoma = tested on: MALME-3M melanoma
KM12 colon = tested on: KM12 colon
SK-MEL-5 melanoma = tested on: SK-MEL-5 melanoma
MDA-MB-231 breast = tested on: MDA-MB-231 breast
COLO 205 colon = tested on: COLO 205 colon
HS 578T breast = tested on: HS 578T breast
BT-549 breast = tested on: BT-549 breast
T-47D breast = tested on: T-47D breast
RXF 393 renal = tested on: RXF 393 renal
IGROV1 ovarian = tested on: IGROV1 ovarian
SN12C renal = tested on: SN12C renal
CAKI-1 renal = tested on: CAKI-1 renal
LOX IMVI melanoma = tested on: LOX IMVI melanoma
UACC-257 melanoma = tested on: UACC-257 melanoma
MOLT-4 leukemia = tested on: MOLT-4 leukemia
CCRF-CEM leukemia = tested on: CCRF-CEM leukemia
UACC-62 melanoma = tested on: UACC-62 melanoma
HCT-15 colon = tested on: HCT-15 colon
HCT-116 colon = tested on: HCT-116 colon
SR leukemia = tested on: SR leukemia
OVCAR-3 ovarian = tested on: OVCAR-3 ovarian
OVCAR-4 ovarian = tested on: OVCAR-4 ovarian
U251 glioblastoma = tested on: U251 glioblastoma
A549 NSCLC = tested on: A549 NSCLC

CNc1ncc2cc(-c3cc(NC(=O)NCCC(C)(C)C)c(F)cc3C)c(C)nc2n1 was tested, and the GI50 (ACHN renal) was 250 nM, the TGI (ACHN renal) was 19100 nM and the GI50 (NCI-H322M lung) was 318 nM. For the same molecule, the TGI (NCI-H322M lung) was 12900 nM, the GI50 (TK-10 renal) was 599 nM and the TGI (TK-10 renal) was 4670 nM. The GI50 (OVCAR-8 ovarian) was 489 nM, the TGI (OVCAR-8 ovarian) was 48900 nM and the GI50 (NCI-H226 lung) was 299 nM. The TGI (NCI-H226 lung) was 15700 nM, the GI50 (MDA-MB-468 breast) was 12800 nM and the TGI (MDA-MB-468 breast) was 35200 nM. It also gave a GI50 (MDA-MB-435 melanoma) of 33.6 nM, a TGI (MDA-MB-435 melanoma) of 27300 nM and a GI50 (SNB-75 CNS) of 361 nM. It also gave a TGI (SNB-75 CNS) of 15400 nM, a GI50 (SW-620 colon) of 334 nM and a TGI (SW-620 colon) of 15400 nM. The GI50 ([…]-0 renal) was 676 nM, the TGI (786-0 renal) was 39100 nM and the GI50 (NCI/ADR-RES ovarian) was 3080 nM. It also gave a TGI (NCI/ADR-RES ovarian) of 83700 nM, a GI50 (HL-60(TB) leukemia) of 17.1 nM and a TGI (HL-60(TB) leukemia) of 130 nM. For the same molecule, the GI50 (SK-MEL-28 melanoma) was < 10 nM, the TGI (SK-MEL-28 melanoma) was 35.9 nM and the GI50 (PC-3 prostate) was 13300 nM. For the same molecule, the TGI (PC-3 prostate) was > 100000 nM, the GI50 (MCF7 breast) was 7040 nM and the TGI (MCF7 breast) was > 100000 nM. The GI50 (NCI-H23 lung) was 47.2 nM, the TGI (NCI-H23 lung) was 443 nM and the GI50 (A498 renal) was 294 nM. For the same molecule, the TGI (A498 renal) was > 100000 nM, the GI50 (M14 melanoma) was < 10 nM and the TGI (M14 melanoma) was 36.4 nM. For the same molecule, the GI50 (RPMI-8226 leukemia) was 162 nM, the TGI (RPMI-8226 leukemia) was 585 nM and the GI50 (UO-31 renal) was 210 nM. The TGI (UO-31 renal) was 23600 nM, the GI50 (NCI-H460 NSCLC) was 302 nM and the TGI (NCI-H460 NSCLC) was 13800 nM. The GI50 (SF-295 CNS) was 1200 nM, the TGI (SF-295 CNS) was > 100000 nM and the GI50 (SF-268 CNS) was 1090 nM. It also gave a TGI (SF-268 CNS) of 16100 nM, a GI50 (HT29 colon) of 26.8 nM and a TGI (HT29 colon) of 13100 nM. The GI50 (SK-OV-3 ovarian) was 303 nM, the TGI (SK-OV-3 ovarian) was 4160 nM and the GI50 (SF-539 CNS) was 1750 nM. For the same molecule, the TGI (SF-539 CNS) was 19200 nM, the GI50 (HOP-92 NSCLC) was 166 nM and the TGI (HOP-92 NSCLC) was 409 nM. The GI50 (NCI-H522 lung) was 670 nM, the TGI (NCI-H522 lung) was 9380 nM and the GI50 (K-562 leukemia) was 126 nM. For the same molecule, the TGI (K-562 leukemia) was 284 nM, the GI50 (DU-145 prostate) was 652 nM and the TGI (DU-145 prostate) was 32400 nM. For the same molecule, the GI50 (HCC-2998 colon) was 127 nM, the TGI (HCC-2998 colon) was 11500 nM and the GI50 (EKVX NSCLC) was 2090 nM. The TGI (EKVX NSCLC) was 82400 nM, the GI50 (HOP-62 NSCLC) was 367 nM and the TGI (HOP-62 NSCLC) was 15900 nM. For the same molecule, the GI50 (SNB-19 CNS) was 1550 nM, the TGI (SNB-19 CNS) was 71000 nM and the GI50 (MALME-3M melanoma) was < 10 nM. It also gave a GI50 (KM12 colon) of 501 nM, a TGI (KM12 colon) of 38300 nM and a GI50 (SK-MEL-5 melanoma) of 38.2 nM. For the same molecule, the TGI (SK-MEL-5 melanoma) was 4200 nM, the GI50 (MDA-MB-231 breast) was 47.9 nM and the TGI (MDA-MB-231 breast) was 397 nM. It also gave a GI50 (COLO 205 colon) of 14.4 nM, a TGI (COLO 205 colon) of 543 nM and a GI50 (HS 578T breast) of 354 nM. It also gave a TGI (HS 578T breast) of 7890 nM, a GI50 (BT-549 breast) of 1260 nM and a TGI (BT-549 breast) of 19900 nM. For the same molecule, the GI50 (T-47D breast) was 2400 nM, the TGI (T-47D breast) was 37700 nM and the GI50 (RXF 393 renal) was 440 nM. It also gave a TGI (RXF 393 renal) of 10500 nM, a GI50 (IGROV1 ovarian) of 157 nM and a TGI (IGROV1 ovarian) of 1050 nM. The GI50 (SN12C renal) was 173 nM, the TGI (SN12C renal) was 889 nM and the GI50 (CAKI-1 renal) was 134 nM. It also gave a TGI (CAKI-1 renal) of 1230 nM, a GI50 (LOX IMVI melanoma) of 27.7 nM and a TGI (LOX IMVI melanoma) of 237 nM. For the same molecule, the GI50 (UACC-257 melanoma) was 16.6 nM, the TGI (UACC-257 melanoma) was 119 nM and the GI50 (MOLT-4 leukemia) was 360 nM. It also gave a TGI (MOLT-4 leukemia) of 15400 nM, a GI50 (CCRF-CEM leukemia) of 495 nM and a TGI (CCRF-CEM leukemia) of 18300 nM. For the same molecule, the GI50 (UACC-62 melanoma) was < 10 nM, the TGI (UACC-62 melanoma) was 51.7 nM and the GI50 (HCT-15 colon) was 525 nM. The TGI (HCT-15 colon) was 38600 nM, the GI50 (HCT-116 colon) was 58.5 nM and the TGI (HCT-116 colon) was 916 nM. The GI50 (SR leukemia) was 181 nM, the TGI (SR leukemia) was 385 nM and the GI50 (OVCAR-3 ovarian) was 1230 nM. For the same molecule, the TGI (OVCAR-3 ovarian) was 55800 nM, the GI50 (OVCAR-4 ovarian) was 18300 nM and the TGI (OVCAR-4 ovarian) was > 100000 nM. For the same molecule, the GI50 (U251 glioblastoma) was 506 nM, the TGI (U251 glioblastoma) was 13000 nM and the GI50 (A549 NSCLC) was 711 nM. The TGI (A549 NSCLC) was 15200 nM.
